The values below come from US20080188513A1, “1-(2-Methylpropyl)-1H-Imidazo[4,5-C](1,5]Naphthyridin-4-Amine Ethanesulfonate and 1-(2-Methylpropyl)-1H-Imidazo[4,5-C](1,5]Naphthyridin-4-Amine Methanesulfonate” (taked Pharmaceutical Company Limited, priority 2004, published 2008).

Usually solubility stands for the dissolved amount per volume that the medium holds. By pKa is commonly meant the pH at which an ionisable group is half protonated. A low value points to a stronger acid or weaker base. As a reminder, the melting point is the temperature, or range, at which the solid turns liquid.

Converted amounts (≈) assume the structure as drawn. “And” between values parts separate entries of the source, which are not always exact repeats. Identical values can stand only once.

A short description of data set [1]: Aqueous solubility of the free base measured potentiometrically as a function of pH (p-SOL microtitrator). The class given is physicochemical. The following applies: saline or isotonic, thermodynamic from solid, 0.15 M aqueous potassium chloride, potentiometric titration, read-out: intrinsic solubility (So). Here is the method: (§1) The aqueous solubility of 1-(2-methylpropyl)-1H-imidazo[4,5-c][1,5]naphthyridin-4-amine free base was measured potentiometrically as a function of pH. […] The titration was carried out on a sample approximately 3 mg in size. […] The pKa of 1-(2-methylpropyl)-1H-imidazo[4,5-c][1,5]naphthyridin-4-amine, determined potentiometrically in a separate experiment to be 6.1, was used in the calculation to determine the intrinsic solubility. The curve showing solubility as a function of pH for 1-(2-methylpropyl)-1H-imidazo[4,5-c][1,5]naphthyridin-4-amine free base is shown in FIG. 5.

A short description of data set [2]: pKa determined potentiometrically. Particulars: determined potentiometrically in a separate experiment. The class given is physicochemical. Here is the method: as §1
A short description of data set [3]: In-situ salt selection test carried out in water. The following applies: for aqueous solubility (in words): summary statement; for Appearance: appearance of the resulting solution after 24 hours at 25° C., in water; for solubility at 24 h: water (salt formed in situ with aqueous acid), thermodynamic from solid. The class given is physicochemical. How it is done:
Aqueous solutions (0.5 molar (M)) of ethanesulfonic acid, methanesulfonic acid, and hydrochloric acid were prepared. For ethanesulfonic acid and methanesulfonic acid, the neat acid (0.05 mol) was dissolved in water (100 mL) to prepare the solutions. Hydrochloric acid (1 normal (N)) was diluted with water to prepare 0.5 M hydrochloric acid. The free base of 1-(2-methylpropyl)-1H-imidazo[4,5-c][1,5]naphthyridin-4-amine in an amount indicated in the following Table 1 was added to a vial, and the acidic solution from the following Table 1 (1.05 equivalent) was added. The vial was capped and shaken at 25° C. in a water bath for 24 hours. The resulting salt mixture or solution was filtered through Whatman No. 5 filter paper, and 1 mL of the filtrate was diluted with methanol (10 mL) to provide a specimen for analysis. The solubility of the salt in water was determined for each specimen by analyzing for soluble salt content by reverse phase high performance liquid chromatography (HPLC) using the following method.
A diluent was prepared by dissolving phosphoric acid (1 mL of 85%) in HPLC grade water (1 L). The resulting solution was mixed in a 60:40 ratio with acetonitrile. Each specimen was diluted to a volume of 50.0 mL with the diluent to provide a sample having a concentration of less than or equal to (≦) 50 micrograms per milliliter (μg/mL).
An external standard was prepared by dissolving 1-(2-methylpropyl)-1H-imidazo[4,5-c][1,5]naphthyridin-4-amine free base (25 mg) in methanol (30 mL) with the aid of sonication and then diluting to a volume of 50.0 mL with methanol to provide a stock solution. Diluent was added to 5 mL of the stock solution to a volume of 50.0 mL.
A Waters LC Module 1 HPLC system equipped with an autosampler, a reproducible injector, a UV detector (326 nm wavelength), and Turbochrom data acquisition software was used with a ZORBAX Bonus-RP C14, 15 cm×4.6 mm column with 5 μm packing. The mobile phase was prepared by dissolving 1-octanesulfonate, sodium salt (2.00 g) and phosphoric acid (1 mL of 85%) in HPLC grade water (1 L) and mixing the resulting solution in a 65:35 ratio with HPLC grade acetonitrile. A flow rate of 1.0 mL/min was used.
The column was equilibrated with the mobile phase, and the system was tested using six 20 μL injections of the external standard to ensure that the relative standard deviation for the peak areas was less than or equal to (≦) 1.5%. An injection of each sample (20 μL) was tested in comparison to a standard. The concentration, in percentage, of 1-(2-methylpropyl)-1H-imidazo[4,5-c][1,5]naphthyridin-4-amine in solution was then calculated using the following operation: {[peak area of the sample/weight of the sample (mg)]/[peak area of the standard/weight of the standard (mg)]average}×100. The solubility of the salt, presented in the following Table 1, can then be calculated using the equations presented by Tong, W. Q., and Whitesell, G, Pharmaceutical Development and Technology, 3(2), pp. 215-223 (1998).

The next data set concerns cytokine biosynthesis. Particulars: U.S. Pat. No. 6,194,425; cited from earlier work.
Data set [4] can be described thus: Physical and chemical stability in solid form. The class given is physicochemical.
Data set [5] can be described thus: In-situ salt selection test carried out in water with a cosolvent. The class given is physicochemical. The following applies: 25 °C, aqueous with cosolvent or surfactant or cyclodextrin, thermodynamic from solid, final acid concentration 0.05 M.
Data set [6] deals with interferon (α) and tumor necrosis factor (α) secreted by peripheral blood mononuclear cells (PBMC). Nature of the data set: Cytokine induction in human cells (PBMC). The class given is cell-based. The following applies: 18 to 24 hours, 30-0.014 μM. From the text:
An in vitro human blood cell system is used to assess cytokine induction. Activity is based on the measurement of interferon (α) and tumor necrosis factor (α) (IFN and TNF, respectively) secreted into culture media as described by Testerman et al. in “Cytokine Induction by the Immunomodulators Imiquimod and S-27609,” Journal of Leukocyte Biology, 58, 365-372 (September, 1995).
Whole blood from healthy human donors is collected by venipuncture into EDTA vacutainer tubes. Peripheral blood mononuclear cells (PBMC) are separated from whole blood by density gradient centrifugation using HISTOPAQUE-1077. […]
Following incubation the plates are centrifuged for 10 minutes at 1000 revolutions per minute (rpm) (approximately 200×g) at 4° C. […] The samples are analyzed for interferon (α) by ELISA and for tumor necrosis factor (α) by ELISA or IGEN Assay.
Interferon (α) concentration is determined by ELISA using a Human Multi-Species kit from PBL Biomedical Laboratories, New Brunswick, N.J. Results are expressed in pg/mL.
Tumor necrosis factor (α) (TNF) concentration is determined using ELISA kits available from Biosource International, Camarillo, Calif. Alternately, the TNF concentration can be determined by ORIGEN M-Series Immunoassay and read on an IGEN M-8 analyzer from IGEN International, Gaithersburg, Md. […]

Setting [7] is: salt formed in situ in water, shaken at 25° C. for 24 hours, filtrate by HPLC.
Setting [8] is: 5% (w/w) diethylene glycol monoethyl ether in water.
Setting [9] is: 5% (w/w) propylene glycol in water.

As to `CC(C)Cn1cnc2c(N)nc3cccnc3c21` [1-(2-methylpropyl)-1H-imidazo[4,5-c][1,5]naphthyridin-4-amine], the solubility in data set [1] is 0.003 mg/mL (≈ 12.4 µM). Further, the pKa in data set [2] came out at 6.1. Further, the “aqueous solubility (in words)” value in data set [3] is given as “particularly low aqueous solubility”. The “ability to induce cytokine biosynthesis” value with cytokine biosynthesis is “ability to induce cytokine biosynthesis”.

For the molecule `CC(C)Cn1cnc2c(N)nc3cccnc3c21.CCS(=O)(=O)O.O` (hydrate or solvate), the melting point is 221.5 to 223.4 °C and 220 to 221 °C.

For `CC(C)Cn1cnc2c(N)nc3cccnc3c21.CS(=O)(=O)O` [Methanesulfonic, 1-(2-methylpropyl)-1H-imidazo[4,5-c][1,5]naphthyridin-4-amine methanesulfonate], the “physical and chemical stability in solid form” value in data set [4] is “good physical and chemical stability in solid form”. For the same molecule, the Appearance entry in data set [3] is reported as “Translucent”. Besides, the “aqueous solubility (in words)” value in data set [3] is recorded as “good aqueous solubility”. Also, the values for the solubility at 24 h in data set [3] (setting [7]), in data set [5] (setting [8]) and in data set [5] (setting [9]) were 15.2 mg/mL, 10.5 mg/mL and 10.3 mg/mL, respectively.

In the case of `CC(C)Cn1cnc2c(N)nc3cccnc3c21.CCS(=O)(=O)O` [Ethanesulfonic, 1-(2-methylpropyl)-1H-imidazo[4,5-c][1,5]naphthyridin-4-amine ethanesulfonate], the “physical and chemical stability in solid form” value in data set [4] is “good physical and chemical stability in solid form”. Besides, the “induction of interferon α and/or tumor necrosis factor α production” value in data set [6] was “inducing the production of interferon α and/or tumor necrosis factor α”. Moreover, the Appearance result in data set [3] is recorded as “Clear”. In data set [3], the “aqueous solubility (in words)” value is given as “good aqueous solubility”. In addition, the solubility at 24 h in data set [3] (setting [7]) is 24.4 mg/mL; in data set [5] (setting [8]) it was 10.5 mg/mL; in data set [5] (setting [9]), above 10.1 mg/mL.

For `CC(C)Cn1cnc2c(N)nc3cccnc3c21.Cl` [Hydrochloric, hydrochloride salt of 1-(2-methylpropyl)-1H-imidazo[4,5-c][1,5]naphthyridin-4-amine, reference compound], in data set [3], the Appearance result is “Milky,” and the “aqueous solubility (in words)” value is given as “low aqueous solubility”. In data set [3] (setting [7]), the “solubility” value is listed as 0.39 mg/mL.
